EC50, IC50 and outcome data for 71 compounds are collected here from PubChem BioAssay AID179 (DTP/NCI, 2004).

The test system of this experiment is CEM cells HIV-1 protection, formazan growth assay. Kind of experiment: NCI AIDS Antiviral Assay. The note with it: for IC50: measured here: growth of uninfected CEM cells. Put shortly:
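Five concentrations of each compound were applied to infected and uninfected human CEM cells. Protection from HIV-1 was judged from growth measured with a soluble formazan assay.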

SMILES strings stand for the structures. Values joined by “and” are separate entries in the source; they are usually repeats but may differ in a detail not shown here. Identical values can stand only once. Active and inactive are the calls of the source.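 How the source made its calls: active means compounds giving half or more protection of infected cells from virus-caused growth loss, again on retest; inactive means the rest.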

For `Cc1cc(Cl)ccc1NC(=O)C(=O)Cc1nc2ccccc2o1`, the EC50 (usually the midpoint of the concentration-response curve) is > 11.5 µM and the IC50 (commonly the concentration that inhibits the measured activity by half) is > 11.5 µM.
On to `COC(=O)CCc1ccc2c(c1)C(=O)CC2`, for which the EC50 was > 200 µM and the IC50 is > 200 µM.
Consider `COc1ccc2cc1Oc1cc3c(cc1OC)CC[N+](C)(C)C3Cc1ccc(cc1)Oc1c(OC)c(OC)cc3c1C(C2)[N+](C)(C)CC3` (configuration not stated), for which the EC50 was > 200 µM and the IC50 is > 200 µM.
For `CN/C=C(\C(=O)c1ccc(OC)c(OC)c1)c1ccc(OC)cc1`, the EC50 was > 398 µM and the half-maximal inhibitory concentration (IC50) stood at 6.92 µM.
For `Cn1c(=N)n[n+]([O-])c2ccccc21`, the EC50 is > 200 µM; the IC50 was 3.47 µM and 4.07 µM.
Turning to `CCOC(=O)n1c2ccccc2c(=O)n1CCO`, the EC50 was > 200 µM and the half-inhibitory concentration (IC50) is > 200 µM.
`COc1ccc(OC)c2c(C(C)=O)cccc12`: the EC50 was > 200 µM and the half-maximal inhibitory concentration (IC50) is 97.7 µM.
In the same order, the values of `N=C1C(=N)c2ccccc2-c2ccccc21` are > 200 µM and 0.407 µM.
As for `CC1=C2C(=O)[C@H]3[C@@H](CC=C4C[C@@H](O)CC[C@@]43C)[C@@H]2CC[C@]12O[C@@H]1C[C@H](C)CN[C@H]1[C@H]2C`, the EC50 was > 200 µM; the half-maximal inhibitory concentration (IC50) was > 2.45 µM and 102 µM.
With `CC1=C(C(=O)OC2CC3CCC2(C)C3(C)C)C2Nc3ccccc3N(C)C2O1` (configuration not stated), the EC50 is > 200 µM and the IC50 was 6.46 µM.
Regarding `O=C(O)c1cc([N+](=O)[O-])c2c(c1)P(=O)(O)c1cc(C(=O)O)cc([N+](=O)[O-])c1O2`, the EC50 was > 200 µM and the IC50 was > 200 µM.
Regarding `OC(c1ccccc1)c1ccc(C(O)c2ccccc2)cc1` (configuration not stated), the EC50 is > 123 µM and the IC50 is > 123 µM.
Consider `CCC[CH2][Sn]([CH2]CCC)([O]C(=O)c1cc(OC)c(OC)cc1OC)[O]C(=O)c1cc(OC)c(OC)cc1OC`, for which the EC50 is > 39.8 µM and the IC50 worked out at 0.776 µM.
The corresponding values for `N#C/C(=C\N1C(=O)/C(=C/c2cccc([N+](=O)[O-])c2)SC1=S)c1nc2ccccc2s1` are > 200 µM and 29.5 µM.
`CC(C)CC(NC(=O)OC(C)(C)C)C(=O)Nc1ccc(Nc2nc(F)nc(-c3c4ccccc4cn3C)n2)cc1` (configuration not stated): the EC50 was > 18.2 µM and the half-maximal inhibitory concentration (IC50) turned out to be 16.6 µM.
In the case of `O=C(O)c1ccccc1C1c2ccccc2Oc2ccccc21`, the concentration giving a half-maximal response (EC50) was > 200 µM and the 50% inhibitory concentration (IC50) worked out at 35.5 µM.
As for `CN1Cc2ccccc2C2(COc3ccc(C=O)cc3C2=O)C1` (configuration not stated), the result was inactive.
Turning to `CCOC(=O)/C(=C/c1ccc(OCc2ccccc2)cc1)P(=O)(OCC)OCC`, the EC50 was > 44.7 µM and the IC50 came to 4.27 µM.
For `CCCCCCC1CCC2CCCC(C)N12` (configuration not stated), the EC50 was > 162 µM and the IC50 was > 162 µM.
Regarding `CCN(CC)CCNC(=O)c1nn(-c2ccc(Cl)cc2)c2c1CCc1cc(OC)ccc1-2`, the EC50 is > 91.2 µM and the IC50 is 5.01 µM.
In the case of `Clc1ccc2c(Cl)ncnc2c1I`, the EC50 was > 30.9 µM and the IC50 turned out to be 7.41 µM.
In the same order, the values of `CC(=O)NC(=O)c1ccccc1O` are > 724 µM and 389 µM.
In the case of `COCCN1C2=CCCCC2=Nc2c1nc(N)[nH]c2=O`, the result was inactive.
In the case of `Cc1cc(C)c(C(=O)c2no[n+]([O-])c2C(=O)c2c(C)cc(C)c(Br)c2C)c(C)c1Br`, the EC50 is > 1.95 µM and the IC50 was > 1.95 µM.
`O=C1CNC(=O)c2[nH]cnc2N1`: the result was inactive.
For `C[N+]12CN3CN(CP(C3)C1)C2`, the EC50 is > 832 µM.
Take `Cc1nc(N)c(N2CCN(C(=O)O)CC2)c(=O)[nH]1`: the EC50 was > 200 µM and the IC50 was > 200 µM.
Consider `CCc1cccc(C(C)CC)c1N=C(NC(=O)c1ccccc1C(=O)NC(=Nc1c(CC)cccc1C(C)CC)SC)SC` (configuration not stated), for which the EC50 is > 56.2 µM and the half-inhibitory concentration (IC50) was > 56.2 µM.
For the compound `CCOC(=O)N1CC2OC(n3cc(C)c(=O)[nH]c3=O)CC2O1` (configuration not stated), the EC50 was > 200 µM and the half-inhibitory concentration (IC50) is > 200 µM.
Regarding `COc1ccc(C2=C(OC(C)=O)c3cccn3-c3ccc(Cl)cc3S2)cc1`, the EC50 is > 200 µM and the concentration for half-maximal inhibition (IC50) is 12.3 µM.
For `C=CCOc1ccccc1C1(O)c2ccccc2C2=NCCCN21` (configuration not stated), the EC50 was > 200 µM and the IC50 turned out to be 40.7 µM.
Consider `Cc1cccc2c1Oc1cc(Cl)ccc1C2NC(=O)CCN1CCCCC1` (configuration not stated), for which the EC50 was > 200 µM and the IC50 was found to be 11.2 µM.
For the compound `CN(O)C(=O)c1cccc(Cl)c1`, the EC50 was > 200 µM and the 50% inhibitory concentration (IC50) was 112 µM.
Consider `N#Cc1c(Cl)nc2ccccc2c1N=[N+]=[N-]`, for which the EC50 was > 200 µM and the half-inhibitory concentration (IC50) was 0.912 µM.
In the case of `O=Cc1ccc(C=O)n1C1CCOC1=O` (configuration not stated), the result was inactive.
On to `Cc1ccc(Cc2n[nH]c(=O)n2N2C(=O)c3ccccc3C2=O)cc1`, for which the EC50 is > 200 µM and the IC50 was > 200 µM.
Turning to `O=S(Nc1ccccc1)c1ccc(Cl)c(Cl)c1` (configuration not stated), the EC50 was > 200 µM and the half-inhibitory concentration (IC50) is > 200 µM.
In the case of `N#Cc1c2c([nH]c(=O)c1C#N)CCCC2`, the EC50 is > 200 µM and the half-maximal inhibitory concentration (IC50) was > 200 µM.
As for `Cc1ccc(S(=O)(=O)NC2CCCCO2)cc1` (configuration not stated), the EC50 is > 708 µM and the IC50 was > 708 µM.
With `CN(Cc1c(S)ccc2ccccc12)Cc1c(S)ccc2ccccc12`, the EC50 is > 100 µM and the IC50 came to 17 µM.
With `Cc1cccc2oc3c(CC(=O)O)cccc3c(=O)c12`, the EC50 is > 200 µM and the 50% inhibitory concentration (IC50) is > 100 µM.
Turning to `O=C(Nc1ccccc1)N1CCC2N(C(=O)Nc3ccccc3)CCC3N(C(=O)Nc4ccccc4)CCC1N23` (configuration not stated), the EC50 was > 13.2 µM and the 50% inhibitory concentration (IC50) is > 13.2 µM.
With `CCCCCCCC[N+](C)(C)Cc1ccc(C[N+](C)(C)CCCCCCCC)cc1`, the result was inactive.
Take `O=c1[nH]c(=O)n(Cc2ccccc2)cc1B(O)O`: the EC50 was > 200 µM and the concentration for half-maximal inhibition (IC50) is > 200 µM.
In the case of `Cn1cc(N)cc1C(=O)Nc1cc(C(=O)Nc2ccc3cc(S(=O)(=O)O)cc(S(=O)(=O)O)c3c2)n(C)c1`, the 50% effective concentration (EC50) was 36.3 µM and the IC50 stood at 316 µM.
Regarding `C=CCn1c(=O)c2ccccc2[n+]2c(-c3cccc([N+](=O)[O-])c3)csc12`, the EC50 is > 200 µM and the IC50 is > 200 µM.
For `C=CC1(C)CCC2C(=CCC3C2(C)CC(O)C(O)C3(C)COC2OC(C(=O)O)C(O)C(O)C2O)C1` (configuration not stated) (tested in a mixture with another compound), the EC50 was > 100 µM and the half-inhibitory concentration (IC50) is > 100 µM.
Turning to `COC(=O)/C(=N\NC(C)(C)C)C(C(=O)OC)C(=O)C(=O)Nc1cc(Cl)ccc1Cl` (configuration not stated), the result was inactive.
On to `CC(C)(C)OC(=O)NC(Cc1cc(C(C)(C)C)c(O)c(C(C)(C)C)c1)C(=O)O` (configuration not stated), for which the EC50 was > 200 µM and the IC50 was determined as 61.7 µM.
With `CCCCNC1C2CCC(C)(C1O)C2(C)C` (configuration not stated), the EC50 is > 200 µM and the IC50 amounted to 174 µM.
Regarding `CCCCCCCCCCCCCC(=O)OCC1OC(n2cc(C)c(=O)[nH]c2=O)CC1F` (configuration not stated), the half-maximal effective concentration (EC50) is 0.0437 µM and the IC50 worked out at 120 µM.
For the compound `CC(C)(C)OC[C@H]1N([C@H](COCc2ccccc2)c2ccccc2)C(=O)C1(C)C`, the EC50 is > 170 µM and the half-inhibitory concentration (IC50) came to 117 µM.
For `CN(C)C(=O)C(NCCO)c1ccccc1` (configuration not stated), the EC50 is > 200 µM and the IC50 was determined as 74.1 µM.
On to `NC1c2c(Cl)sc(Cl)c2C(=O)C1O` (configuration not stated), for which the EC50 was > 200 µM and the 50% inhibitory concentration (IC50) turned out to be 35.5 µM.
In the same order, the values of `O=C1[C@H]2ON(c3ccccc3)C(c3ccc(Cl)cc3)[C@H]2C(=O)N1c1ccc(Cc2ccc(N3C(=O)[C@@H]4ON(c5ccccc5)C(c5ccc(Cl)cc5)[C@@H]4C3=O)cc2)cc1` (some centres not stated) are > 6.31 µM and > 6.31 µM.
As to `O=C(c1ccc(O)cc1O)C1C(c2ccc(O)cc2)OC(c2ccc(O)cc2)C1C(=O)c1ccc(O)cc1O` (configuration not stated), the outcome was inactive.
On to `Nc1nc(SSc2nc(N)nc3c2ncn3C2CC(O)C(CO)O2)c2ncn(C3CC(O)C(CO)O3)c2n1` (configuration not stated), for which the EC50 was > 200 µM and the concentration for half-maximal inhibition (IC50) came out at 9.33 µM.
In the same order, the values of `CCOC(=O)C(=CNC(=S)Nc1ccc(Cl)c(Cl)c1)C(=O)OCC` are > 200 µM and 34.7 µM.
On to `Cc1nnc2n1-c1ccccc1C(=S)N1CSCC21` (configuration not stated), for which the EC50 is > 200 µM and the IC50 is > 200 µM.
In the case of `O=C1CCCCC/C1=C\c1ccc(F)cc1`, the EC50 is > 200 µM and the IC50 came out at 61.7 µM.
Take `O=C(NC(=O)c1ccccc1)OC(c1ccccc1)C1CO1` (configuration not stated): the EC50 is > 200 µM and the IC50 was > 200 µM.
Regarding `NNC(=O)c1n[nH]n(N)c1=S`, the EC50 is > 200 µM and the 50% inhibitory concentration (IC50) is > 200 µM.
Regarding `O=C1SC(c2ccc(Cl)cc2)(c2ccc(Cl)cc2)c2ccccc21`, the EC50 was > 200 µM and the IC50 worked out at 93.3 µM.
Take `NN=C(CC(O)(C(F)(F)Cl)C(F)(F)Cl)CC(O)(C(F)(F)Cl)C(F)(F)Cl`: the EC50 was > 200 µM and the IC50 came out at 6.92 µM.
The corresponding values for `O=C(O)c1cc(O)cc(O)c1CNc1ccc(/C=C\c2ccc(NCc3c(O)cc(O)cc3C(=O)O)cc2S(=O)(=O)O)c(S(=O)(=O)O)c1` are > 87.1 µM and > 87.1 µM.
For the compound `C=CCCC(=O)CC(O)(C(F)(F)F)C(F)(F)F`, the result was inactive.
Turning to `COC(=O)[C@@H]1C=C[C@H](NC(C)=O)C1`, the outcome was inactive.
Turning to `CN1CCC2(CC1)C(=NC1CCCCC1)NC(=S)N2c1ccccc1`, the EC50 is > 100 µM and the IC50 was > 100 µM.
On to `Cn1c(COC(=O)NC2CCCCC2)c(COC(=O)NC2CCCCC2)c2ccc3cc(C=O)ccc3c21`, for which the EC50 is > 174 µM and the IC50 amounted to 2.19 µM.
As to `COC1O[C@H]2CCN(C(=O)OCc3ccccc3)[C@H]2[C@H]1OCc1ccccc1` (some centres not stated), the EC50 is > 35.5 µM and the IC50 is > 35.5 µM.
Consider `O=C(Nc1ccccc1)c1cc(S(=O)(=O)NC2=NC(c3ccccc3)c3cc(Cl)ccc3N2)c(SSc2cc(Cl)c(C(=O)Nc3ccccc3)cc2S(=O)(=O)NC2=NC(c3ccccc3)c3cc(Cl)ccc3N2)cc1Cl` (configuration not stated), for which the EC50 was > 200 µM and the half-maximal inhibitory concentration (IC50) was > 200 µM.
